Consider 24 compounds from patent publication US8912338B2, “Pesticidal compositions” (Dow AgroSciences LLC, priority 2010, dated 2014).

By melting point is commonly meant the temperature of the solid-liquid transition.

For data set [1], the system named is Sweetpotato Whitefly (Bemisia tabaci). Put plainly: Insecticidal test for sweetpotato whitefly in foliar spray assay. The format is in vivo. To be noted: 200 ppm foliar spray on cotton plants infested with eggs, live nymphs counted after 8-9 days, Abbott's corrected % control, read-out: BEMITA % Ctrl @ 200 ppm. As for the experimental part: Cotton plants were used as test substrate and were grown in 3-inch pots and pruned until only 1 small (3-5 cm) true leaf remained. The plants were then placed in a room with whitefly ([…]) adults and allowed to be infested with eggs. After a 2-3 day egg-laying period, plants were taken from the adult whitefly room and the adults were removed from the leaves using compressed air delivered through a hand-held Devilbiss sprayer (23 psi). Plants infested with eggs (100-300 eggs per plant) were placed in a controlled-environment room for 5-6 days at 82° F. and 50% RH until approximately 50% egg hatch. Four cotton plants (4 replicates) were used for each treatment. Compounds (2 mg) were dissolved in 1 mL of acetone solvent, forming stock solutions of 2000 ppm. The stock solutions were diluted 10× with 0.025% Tween 20 in H2O to obtain the test solution of 200 ppm. A hand-held Devilbiss sprayer was used for spraying a solution to both sides of cotton leaf until runoff. Reference plants (solvent check) were sprayed with the diluent only. Treated plants were held in a holding room for 8-9 days at approximately 82° F. and 50% RH prior to grading. Evaluation was conducted by counting the number of live nymphs per plant under a microscope. Insecticidal activity data presented in Table 3 were generated by using Abbott's correction formula: Corrected%Control=100*(X-Y)/X • where X=No. of live nymphs on solvent check plants • Y=No. of live nymphs on treated plants […]

The subject of data set [2] is Green Peach Aphid (Myzus persicae). Put plainly: Insecticidal test for green peach aphid in foliar spray assay. It counts as in vivo. To be noted: 72 h, 200 ppm foliar spray on cabbage seedlings, live aphids counted after three days, Abbott's corrected % control, read-out: MYZUPE % Ctrl @ 200 ppm. As for the experimental part:
Certain molecules disclosed in this document were tested against MYZUPE using procedures described in the following example. In the reporting of the results, the “MYZUPE, APHIGO and BEMITA Rating Table” was used (See Table Section).
Cabbage seedlings grown in 3-inch pots, with 2-3 small (3-5 cm) true leaves, were used as test substrate. The seedlings were infested with 20-50 green peach aphids (wingless adult and nymph stage) one day prior to chemical application. Four pots with individual seedlings were used for each treatment. Compounds (2 mg) were dissolved in 2 mL of acetone/methanol (1:1) solvent, forming stock solutions of 1000 ppm. The stock solutions were diluted 5× with 0.025% Tween 20 in H2O to obtain the test solution at 200 ppm. A hand-held Devilbiss sprayer was used for spraying a solution to both sides of cabbage leaves until runoff. Reference plants (solvent check) were sprayed with the diluent only. Treated plants were held in a holding room for three days at approximately 25° C. and 40% relative humidity (RH) prior to grading. Evaluation was conducted by counting the number of live aphids per plant under a microscope. Insecticidal activity data presented in Table 3 were generated by using Abbott's correction formula: Corrected%Control=100*(X−Y)/X • where X=No. of live aphids on solvent check plants • Y=No. of live aphids on treated plants

Data set [3] deals with Cotton Aphid (Aphis gossypii). Put plainly: Insecticidal test for cotton aphid in a foliar spray assay. It counts as in vivo. The following applies: 72 h, 200 ppm foliar spray on squash or cotton seedlings, live aphids counted after three days, Abbott's corrected % control, read-out: APHIGO % Ctrl @ 200 ppm. On the procedure:
Squash or cotton seedlings with fully expanded cotyledon leaves were trimmed to one cotyledon per plant and infested with wingless adult and nymph stage cotton aphid (APHIGO) one day prior to chemical application. Each plant was examined before chemical application to ensure uniform infestation (ca. 30-70 aphids per plant). Compounds (2 mg) were dissolved in 2 mL of acetone/methanol (1:1) solvent, forming stock solutions of 1000 ppm. The stock solutions were diluted 5× with 0.025% Tween 20 in H2O to obtain a solution at 200 ppm. A hand-held Devilbiss aspirator type sprayer was used to apply the spray solutions until runoff to both sides of the squash cotyledon leaves. Four plants (4 replications) were used for each concentration of each compound. Reference plants (solvent check) were sprayed with the diluent only. Treated plants were held in a holding room for three days at approximately 25° C. and 40% RH before the number of live cotton aphids on each plant was recorded. Insecticidal activity data presented in Table 3 were generated by using Abbott's correction formula: Corrected%Control=100*(X−Y)/X • where X=No. of live aphids on solvent check plants • Y=No. of live aphids on treated plants

`CN(C(=O)C1(C[S+](C)[O-])CC1)c1nnc(-c2cccnc2)s1` (stereo not shown) [Compound 45] registered a melting point of 166 to 168 °C. The inhibition at 200 ppm in data set [1] was 0 to 80%. In addition, the inhibition at 200 ppm in data set [2] lay within 80 to 100%. The inhibition at 200 ppm in data set [3] was in the range of 80 to 100%.

For the compound `CCS(=O)(=O)C(C)CC(=O)N(C)c1nnc(-c2cccnc2)s1` (stereo not shown) [Compound 43], the melting point fell in the range of 175 to 177 °C. Moreover, the inhibition at 200 ppm in data set [1] was less than 0%. In addition, the inhibition at 200 ppm in data set [2] lay in the range of 0 to 80%. Besides, the inhibition at 200 ppm in data set [3] lay in the range of 80 to 100%.

`CSCCCC(=O)N(C)c1nnc(-c2cccnc2)s1` [Compound 6] gave a melting point of 93 to 95 °C. The inhibition at 200 ppm in data set [1] lay within 0 to 80%. Further, the inhibition at 200 ppm in data set [2] was 80 to 100%. In data set [3], the inhibition at 200 ppm is 80 to 100%.

Compound `CO/N=C(\C)CCC(=O)N(C)c1nnc(-c2cccnc2)s1` [Compound 48, 4-[(E)-methoxyimino]-pentanoic acid methyl-(5-pyridin-3-yl-[1,3,4]thiadiazol-2-yl)-amide] displayed a melting point of 114 to 121 °C. Also, in data set [1], the inhibition at 200 ppm lay within 0 to 80%. The inhibition at 200 ppm in data set [2] is 80 to 100%. Moreover, in data set [3], the inhibition at 200 ppm was in the range of 80 to 100%.

The compound `CC(=O)CCC(=O)N(C)c1nnc(-c2cccnc2)s1` [Compound 49, N-methyl-4-oxo-N-[5-(3-pyridyl)-1,3,4-thiadiazol-2-yl]pentanamide] displayed a melting point of 146 to 147 °C. Also, in data set [1], the inhibition at 200 ppm is 0 to 80%. Also, the inhibition at 200 ppm in data set [2] lay in the range of 0 to 80%. In addition, the inhibition at 200 ppm in data set [3] is 80 to 100%.

The compound `CN(C(=O)OCC[S+](C)[O-])c1nnc(-c2cccnc2)s1` (stereo not shown) [Compound 51] yielded a melting point of 170 to 172 °C. For the same compound, in data set [1], the inhibition at 200 ppm fell in the range of 0 to 80%. Further, the inhibition at 200 ppm in data set [2] lay within 80 to 100%. In addition, the inhibition at 200 ppm in data set [3] was in the range of 80 to 100%.

With `CSCCC(=O)N(C)c1nnc(-c2cccnc2)s1` [Compound 1], the melting point lay in the range of 99 to 101 °C. In data set [1], the inhibition at 200 ppm lay in the range of 0 to 80%. For the same compound, the inhibition at 200 ppm in data set [2] is 80 to 100%. Besides, the inhibition at 200 ppm in data set [3] lay in the range of 80 to 100%.

As for `CCOC(=O)CCC(=O)N(C)c1nnc(-c2cccnc2)s1` [Compound 12], the melting point lay within 137 to 139 °C. In data set [1], the inhibition at 200 ppm lay in the range of 0 to 80%. The inhibition at 200 ppm in data set [2] was 0 to 80%. Further, the inhibition at 200 ppm in data set [3] is 80 to 100%.

`CN(C(=O)C(C)(C)C/S(C)=N/C#N)c1nnc(-c2cccnc2)s1` (stereo not shown) [Compound 39, N-2,2-trimethyl-3-(methyl-N-cyano-sulfiliminyl)-N-(5-(pyridin-3-yl)-1,3,4-thiadiazol-2-yl)propanamide] gave a melting point of 42 to 52 °C. Also, the inhibition at 200 ppm in data set [1] was in the range of 0 to 80%. In data set [2], the inhibition at 200 ppm lay within 80 to 100%. Further, the inhibition at 200 ppm in data set [3] is 80 to 100%.

In turn, `CN(C(=O)CCS(C)(=O)=O)c1nnc(-c2cccnc2)s1` [Compound 20, N-methyl-3-(methylsulfonyl)-N-(5-(pyridin-3-yl)-1,3,4-thiadiazol-2-yl)propanamide] came in with a melting point of 199 to 201 °C. The inhibition at 200 ppm in data set [1] was 0 to 80%. Also, the inhibition at 200 ppm in data set [2] was in the range of 80 to 100%. In data set [3], the inhibition at 200 ppm lay in the range of 80 to 100%.

Regarding `CN(C(=O)CCSCc1ccccc1)c1nnc(-c2cccnc2)s1` [Compound 11], the melting point fell in the range of 116 to 118 °C. Moreover, the inhibition at 200 ppm in data set [1] is 0 to 80%. Besides, in data set [2], the inhibition at 200 ppm is 0 to 80%. For the same compound, in data set [3], the inhibition at 200 ppm is 0 to 80%.

As to `CSCC1(C(=O)N(C)c2nnc(-c3cccnc3)s2)CC1` [Compound 44], the melting point was in the range of 144 to 147 °C. In addition, the inhibition at 200 ppm in data set [1] is less than 0%. For the same compound, the inhibition at 200 ppm in data set [2] lay in the range of 80 to 100%. The inhibition at 200 ppm in data set [3] was 80 to 100%.

The compound `COCCCC(=O)N(C)c1nnc(-c2cccnc2)s1` [Compound 19] returned a melting point of 92 to 95 °C. The inhibition at 200 ppm in data set [1] was in the range of 0 to 80%. For the same compound, the inhibition at 200 ppm in data set [2] was in the range of 0 to 80%. In addition, the inhibition at 200 ppm in data set [3] fell in the range of 80 to 100%.

`COC(=O)CCC(=O)N(C)c1nnc(-c2cccnc2)s1` [Compound 56, methyl 4-(methyl-(5-(pyridin-3-yl)-1,3,4-thiadiazol-2-yl)amino)-4-oxobutanoate] gave a melting point of 152 to 154 °C. Besides, the inhibition at 200 ppm in data set [1] was less than 0%. For the same compound, the inhibition at 200 ppm in data set [2] lay in the range of 0 to 80%. Also, the inhibition at 200 ppm in data set [3] lay within 80 to 100%.

`COCCC(=O)N(C)c1nnc(-c2cccnc2)s1` [Compound 3] had a melting point of 92 to 97.5 °C. For the same compound, the inhibition at 200 ppm in data set [1] was in the range of 0 to 80%. Also, the inhibition at 200 ppm in data set [2] lay within 80 to 100%. The inhibition at 200 ppm in data set [3] is 80 to 100%.

In turn, `CSCCC(=O)Nc1nnc(-c2cccnc2)s1` [Compound 7] yielded a melting point of 211 to 212 °C. Besides, the inhibition at 200 ppm in data set [1] lay in the range of 0 to 80%. The inhibition at 200 ppm in data set [2] was in the range of 0 to 80%. Further, the inhibition at 200 ppm in data set [3] is 0 to 80%.

Take `CN(C(=O)CC[S+](C)[O-])c1nnc(-c2cccnc2)s1` (stereo not shown) [Compound 18, N-methyl-3-(methylsulfinyl)-N-(5-(pyridin-3-yl)-1,3,4-thiadiazol-2-yl)propanamide]: the melting point lay within 138 to 140 °C. Further, the inhibition at 200 ppm in data set [1] was 0 to 80%. For the same compound, the inhibition at 200 ppm in data set [2] is 80 to 100%. In addition, in data set [3], the inhibition at 200 ppm fell in the range of 80 to 100%.

`CCSCCC(=O)N(C)c1nnc(-c2cccnc2)s1` [Compound 2] returned a melting point of 70 to 72 °C. For the same compound, the inhibition at 200 ppm in data set [1] fell in the range of 0 to 80%. Besides, the inhibition at 200 ppm in data set [2] was in the range of 80 to 100%. Besides, in data set [3], the inhibition at 200 ppm lay within 80 to 100%.

On to `CC(C)SCCC(=O)N(C)c1nnc(-c2cccnc2)s1` [Compound 4], for which the melting point was 100 to 105 °C. In addition, in data set [1], the inhibition at 200 ppm is 0 to 80%. In addition, the inhibition at 200 ppm in data set [2] lay within 80 to 100%. Also, in data set [3], the inhibition at 200 ppm was 80 to 100%.

For `CSCC(C)(CN)C(=O)N(C)c1nnc(-c2cncc(F)c2)s1` (stereo not shown) [Compound 89, 2-(aminomethyl)-N-[5-(5-fluoro-3-pyridyl)-1,3,4-thiadiazol-2-yl]-N,2-dimethyl-3-methylsulfanyl-propanamide], the melting point lay in the range of 154 to 157 °C. Moreover, the inhibition at 200 ppm in data set [1] lay in the range of 0 to 80%. Further, the inhibition at 200 ppm in data set [2] was in the range of 0 to 80%.

`CSCCOC(=O)N(C)c1nnc(-c2cncc(F)c2)s1` [Compound 78, [5-(5-fluoropyridin-3-yl)-[1,3,4]thiadiazol-2-yl]-methylcarbamic acid 2-methylsulfanyl-ethyl ester] returned a melting point of 104 to 106 °C. Also, the inhibition at 200 ppm in data set [1] lay in the range of 80 to 100%. For the same compound, the inhibition at 200 ppm in data set [2] was in the range of 80 to 100%.

The compound `CN(C(=O)C1(CS(C)(=O)=O)CC1)c1nnc(-c2cccnc2)s1` [Compound 46] showed a melting point of 208 to 212 °C. Further, in data set [1], the inhibition at 200 ppm lay within 0 to 80%. In data set [3], the inhibition at 200 ppm fell in the range of 80 to 100%.

The compound `CSCCNC(=O)N(C)c1nnc(-c2cncc(F)c2)s1` [Compound 79, 1-[5-(5-fluoro-pyridin-3-yl)-[1,3,4]thiadiazol-2-yl]-1-methyl-3-(2-methylsulfanyl-ethyl)-urea] registered a melting point of 100 to 104 °C. In addition, the inhibition at 200 ppm in data set [1] is 0 to 80%. The inhibition at 200 ppm in data set [2] lay in the range of 80 to 100%.

In turn, `C=CCSCC(C)C(=O)N(C)c1nnc(-c2cccnc2)s1` (stereo not shown) [Compound 94] came in with a melting point of 43 to 46 °C. Further, in data set [1], the inhibition at 200 ppm lay within 80 to 100%. Moreover, the inhibition at 200 ppm in data set [2] was in the range of 80 to 100%.
